Test results reported in US5849735A, “Tricyclic benzazepine vasopressin antagonists” (American Cyanamid Company, priority 1995, dated 1998).

Legend:
vasopressin V2 = assay: Vasopressin V2 Antagonist Activity in Conscious Hydrated Rats; format: in vivo, rat; conditions: oral 10 mg/kg, N=2, AVP challenge
Experimental: Vasopressin V2 Antagonist Activity in Conscious Hydrated Rats Conscious hydrated rats are treated with compounds under study from 0.1 to 100 mg/kg orally or vehicle. Two to four rats are used for each compound. One hour later, arginine vasopressin (AVP, antidiuretic Hormone, ADH) dissolved in peanut oil is administered at […] intraperitoneally. Two rats in each test would not receive arginine vasopressin but only the vehicle (peanut oil) to serve as water-loading control. Twenty minutes later each rat is given 30 mL/kg of deionized water orally by gavage and is placed individually in a metabolic cage equipped with a funnel and a graduated glass cylinder to collect urine for four hours. Urine volume is measure and osmolality analyzed by use of a Fiske One-Ten osmometer (Fiske Assoc., Norwood, Mass., USA). Urinary sodium, potassium, and chloride are analyzed by use of ion-specific electrodes in a Beckman E3 (Electrolye 3) Analyzer. In the following results, […] and decreased osmolality relative to AVP-control indicates activity.

[1] = biological target: T1, oxytocin receptor (rat uteri) (Rattus norvegicus, UniProt P70536); assay: Oxytocin Receptor Binding; design: species or system rat (Sprague-Dawley); conditions: for IC50: [3H]oxytocin displacement
T1 construct: The uteri are dissected out, cleaned of fat and connective tissues; from tissue; host or cells: uteri of diethylstilbestrol-treated female Sprague-Dawley rats
T1 sequence (P70536 1-388): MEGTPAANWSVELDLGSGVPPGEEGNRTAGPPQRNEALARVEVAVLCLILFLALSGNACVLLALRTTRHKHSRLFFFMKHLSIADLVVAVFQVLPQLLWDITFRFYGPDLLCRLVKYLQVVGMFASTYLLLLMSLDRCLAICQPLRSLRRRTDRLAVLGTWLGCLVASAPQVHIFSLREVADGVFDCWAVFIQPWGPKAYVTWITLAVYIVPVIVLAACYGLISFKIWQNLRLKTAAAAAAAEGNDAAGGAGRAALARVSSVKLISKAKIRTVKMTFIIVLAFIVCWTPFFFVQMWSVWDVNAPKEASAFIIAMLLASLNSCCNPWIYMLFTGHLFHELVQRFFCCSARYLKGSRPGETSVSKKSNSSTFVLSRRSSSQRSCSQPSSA
Experimental: Oxytocin Receptor Binding
Female Sprague-Dawley rats weighing approximately 200-250 g are injected intramuscularly (i.m.) with 0.3 mg/kg of body weight of diethylstilbestrol (DES). The rats are sacrificed 18 hours later under pentobarbital anesthesia. The uteri are dissected out, cleaned of fat and connective tissues and rinsed in 50 ml of normal saline. The tissue pooled from six rats is homogenized in 50 ml of […] Tris. HCl, containing 0.5 mM dithiothreitol and 1.0 mM EDTA, adjusted to pH 7.4, using a polytron at setting 6 with three passes of 10 sec each. The homogenate is passed through two (2) layers of cheesecloth and the filtrate centrifuged at 1000×g for 10 minutes. The clear supernatant is removed and recentrifuged at 165,000×g for 30 minutes. The resulting pellet containing the oxytocin receptors is resuspended in 50.0 mM Tris.HCl containing 5.0 mM MgCl2 at pH 7.4, to give a protein concentration of 2.5 mg/ml of tissue suspension. This preparation is used in subsequent binding assays with [^3 H]oxytocin.
Binding of 3,5-[^3 H]Oxytocin ([^3 H]OT) to its receptors is done in microtiter plates using [^3 H]OT, at various concentrations, in an assay buffer of 50.0 mM Tris.HCI, pH 7.4 and containing 5.0 mM MgCl2, and a mixture of protease inhibitors: BSA, 0.1 mg; aprotinin, 1.0 mg; 1,10-phenanthroline, 2.0 mg; […], 10.0 mg; and PMSF, 0.3 mg per 100 ml of buffer solution. Non-specific binding is determined in the presence of 1.0 uM unlabeled OT. The binding reaction is terminated after 60 minutes, at 22° C., by rapid filtration through glass fiber filters using a Brandel® cell harvester (Biomedical Research and Development Laboratories, Inc., Gaithersburg, Md.). Competition experiments are conducted at equilibrium using 1.0 nM [^3 H]OT and varying the concentration of the displacing agents. The concentrations of agent displacing 50% of [^3 H]OT at its sites (IC50) are calculated by a computer assisted LUNDON-2 program (LUNDON SOFTWARE INC., Ohio, USA).

[2] = biological target: T2, vasopressin V1 receptor (rat liver plasma membranes) (Rattus norvegicus, UniProt P30560); assay: Binding Assay to Rat Hepatic V1 Receptors
T2 construct: Rat liver plasma membranes expressing the vasopressin V1 receptor subtypes; from tissue; host or cells: rat liver plasma membranes
T2 sequence (P30560 whole entry): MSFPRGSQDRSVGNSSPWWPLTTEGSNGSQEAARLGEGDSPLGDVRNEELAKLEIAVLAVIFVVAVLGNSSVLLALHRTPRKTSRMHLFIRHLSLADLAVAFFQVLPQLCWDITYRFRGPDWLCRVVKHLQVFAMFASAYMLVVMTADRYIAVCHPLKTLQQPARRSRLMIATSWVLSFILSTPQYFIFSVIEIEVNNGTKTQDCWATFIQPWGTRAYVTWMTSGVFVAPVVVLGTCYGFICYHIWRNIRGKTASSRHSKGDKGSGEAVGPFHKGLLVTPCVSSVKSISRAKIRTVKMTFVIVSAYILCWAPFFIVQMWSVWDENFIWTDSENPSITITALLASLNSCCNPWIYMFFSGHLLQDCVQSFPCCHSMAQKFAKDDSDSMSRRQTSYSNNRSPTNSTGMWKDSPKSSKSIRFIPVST
Experimental: Binding Assay to Rat Hepatic V1 Receptors
Rat liver plasma membranes expressing the vasopressin V1 receptor subtypes are isolated by sucrose density gradient according to the method described by Lesko et al., (1973). These membranes are quickly suspended in 50.0 mM Tris.HCl buffer, pH 7.4, containing 0.2% bovine serum albumin (BSA) and 0.1 mM phenylmethylsulfonylfluoride (PMSF) and kept frozen at -70° C. until used in subsequent binding experiments. For binding experiments, the following is added to the wells of a ninety-six well format microtiter plate: […] of […] buffer containing 10.0 mM MgCl2, 0.2% heat inactivated BSA and a mixture of protease inhibitors: leupeptin, 1.0 mg %; aprotinin, 1.0 mg %; 1,10-phenanthroline,2.0 mg %; trypsin inhibitor, 10.0 mg % and 0.1 mM PMSF, 20.0 ml of [phenylalanyl-3,4,5, -^3 H] vasopressin (S.A. 45.1 Ci/mmole) […], and the reaction initiated by the addition of 80 ml of tissue membranes containing 20 mg of tissue protein. The plates are kept undisturbed on the bench top at room temperature for 120 min. to reach equilibrium. Non-specific samples are assayed in the presence of 0.1 mM of the unlabeled […] phenylalanylvasopressin, added in 20.0 ml volume.
For test compounds, these are solubilized in 50% dimethylsulfoxide (DMSO) and added in 20.0 ml volume to a final incubation volume of […]. Upon completion of binding, the content of each well is filtered off, using a Brandel® cell Harvester (Gaithersburg, Md.). The radioactivity trapped on the filter disk by the ligand-receptor complex is assessed by liquid scintillation counting in a Packard LS Counter, with an efficiency of 65% for tritium.

CCCCOc1ccc(C(=O)N2Cc3ccccc3Cc3ccccc32)cc1 [Example 24]
Osmolality (vasopressin V2): 1492 MOsm/kg | Urine Volume (vasopressin V2): 4.3 ml/4 hrs | IC50 [1]: 1800 nM | inhibition at 10 µM [1]: 97%

O=C(c1ccc(-c2ccccc2)cc1)N1Cc2sccc2Cc2ccccc21 [Example 27, 9-([1,1'-Biphenyl]-4-ylcarbonyl)-9,10-dihydro-4H-thieno[2,3-c][1]benzazepine]
Osmolality (vasopressin V2): 1317 MOsm/kg | Urine Volume (vasopressin V2): 3.3 ml/4 hrs | inhibition at 1 µM [1]: 83%

O=C(c1ccccc1)c1ccc(C(=O)N2Cc3ccccc3Oc3ccccc32)cc1 [Example 32, 10-(4-Benzoylbenzoyl)-10,11-dihydrodibenz[b,f][1,4]oxazepine]
inhibition at 10 µM ([2]; 2 h, rat hepatic V1): 53% | Osmolality (vasopressin V2): 726 MOsm/kg | Urine Volume (vasopressin V2): 9.3 ml/4 hrs | IC50 [1]: 1800 nM | inhibition at 10 µM [1]: 88%

Cc1ccc(F)cc1C(=O)Nc1ccc(C(=O)N2Cc3ccccc3CCc3ccccc32)cn1 [Example 45]
inhibition at 10 µM ([2]; 2 h, rat hepatic V1): 34% | Osmolality (vasopressin V2): 979 MOsm/kg | Urine Volume (vasopressin V2): 6.6 ml/4 hrs | inhibition at 1 µM [1]: 54%

O=C(c1ccc(-c2ccccc2)cc1)N1Cc2ccccc2Oc2ccccc21 [Example 26, 10-([1,1'-Biphenyl]-4-ylcarbonyl)-10,11-dihydrodibenz[b,f][1,4]oxazepine]
inhibition at 1 µM ([2]; 2 h, rat hepatic V1, at 1 μM): 46% | Osmolality (vasopressin V2): 1058 MOsm/kg | Urine Volume (vasopressin V2): 4.5 ml/4 hrs | IC50 [1]: 2500 nM | inhibition at 10 µM [1]: 73%

Cc1ccc(F)cc1C(=O)Nc1ccc(C(=O)N2Cc3ccccc3Oc3ncccc32)cn1 [Example 4, N-[5-(Pyrido[2,3-b][1,4]benzoxazepin-5(6H)-ylcarbonyl)-2-pyridinyl]-5-fluoro-2-methylbenzamide]
inhibition at 10 µM ([2]; 2 h, rat hepatic V1): 44% | Osmolality (vasopressin V2): 878 MOsm/kg | Urine Volume (vasopressin V2): 6.8 ml/4 hrs | inhibition at 10 µM [1]: 20%

Cc1ccc(F)cc1C(=O)Nc1ccc(C(=O)N2Cc3sccc3Cc3ccccc32)cn1 [Example 2, N-[5-[(9,10-Dihydro-4H-thieno[2,3-c][1]benzazepin-9-yl)carbonyl]-2-pyridinyl]-5-fluoro-2-methylbenzamide]
IC50 ([2]; rat hepatic V1 receptors): 59 nM | Osmolality (vasopressin V2): 591 MOsm/kg | Urine Volume (vasopressin V2): 16.5 ml/4 hrs | IC50 [1]: 1100 nM | inhibition at 10 µM [1]: 86%
